# According to ChEMBL document CHEMBL4196124, “Reverse Hydroxamate Inhibitors of Bone Morphogenetic Protein 1” (ACS Med Chem Lett, 2018):
# Tests used:
# [1] = target: Macrophage metalloelastase (Homo sapiens, UniProt P39900); test: Inhibition of MMP12 (unknown origin)
# [2] = target: T1, Bone morphogenetic protein 1 (Homo sapiens, UniProt P13497); test: Inhibition of recombinant human N-terminal 6His/flag-tagged BMP1 (121 to 721 residues) expressed in CHO cells using ((5-FAM)-ELIDQYDVQRDDSSDGSLED-K(5,6 TAMRA)-CONH2) as substrate preincubated for 10 mins followed by substrate addition measured after 60 mins
# T1 sequence (P13497 whole entry): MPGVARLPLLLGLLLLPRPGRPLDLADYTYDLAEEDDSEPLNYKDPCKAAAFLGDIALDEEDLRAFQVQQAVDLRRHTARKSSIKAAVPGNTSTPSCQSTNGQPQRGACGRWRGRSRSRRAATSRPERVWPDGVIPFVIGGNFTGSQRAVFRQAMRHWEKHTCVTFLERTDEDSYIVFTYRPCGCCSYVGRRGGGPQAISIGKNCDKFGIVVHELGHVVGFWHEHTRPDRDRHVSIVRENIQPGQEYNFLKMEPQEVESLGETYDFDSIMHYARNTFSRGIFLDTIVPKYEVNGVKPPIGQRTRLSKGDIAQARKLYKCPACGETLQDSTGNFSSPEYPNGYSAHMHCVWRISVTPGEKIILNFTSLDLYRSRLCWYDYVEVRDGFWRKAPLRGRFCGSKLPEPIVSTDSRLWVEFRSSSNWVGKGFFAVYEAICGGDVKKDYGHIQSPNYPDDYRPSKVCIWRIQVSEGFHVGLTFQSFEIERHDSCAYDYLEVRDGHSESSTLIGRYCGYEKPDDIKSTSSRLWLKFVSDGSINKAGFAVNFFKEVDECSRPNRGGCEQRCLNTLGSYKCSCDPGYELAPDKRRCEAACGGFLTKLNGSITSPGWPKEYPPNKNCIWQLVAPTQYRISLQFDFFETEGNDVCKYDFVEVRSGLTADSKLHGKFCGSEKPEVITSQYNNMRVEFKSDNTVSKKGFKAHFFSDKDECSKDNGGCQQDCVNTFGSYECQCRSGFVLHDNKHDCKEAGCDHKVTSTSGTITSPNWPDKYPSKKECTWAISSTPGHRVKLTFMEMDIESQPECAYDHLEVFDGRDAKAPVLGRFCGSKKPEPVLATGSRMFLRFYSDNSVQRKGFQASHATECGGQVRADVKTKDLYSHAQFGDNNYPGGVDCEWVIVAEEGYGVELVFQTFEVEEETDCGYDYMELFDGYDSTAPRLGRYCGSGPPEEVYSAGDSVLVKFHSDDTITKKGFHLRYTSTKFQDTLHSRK
# [3] = target: T2, Bone morphogenetic protein 1 (Homo sapiens) (UniProt P13497); test: Binding affinity to BMP1 (unknown origin) assessed as association rate constant using ((5-FAM)-ELIDQYDVQRDDSSDGSLED-K(5,6 TAMRA)-CONH2 as substrate by FRET based stopped-flow spectrofluorometric method
# T2 sequence (whole entry): T1 sequence (P13497 whole entry)
# [4] = target: T1, Bone morphogenetic protein 1; test: Binding affinity to BMP1 (unknown origin) using ((5-FAM)-ELIDQYDVQRDDSSDGSLED-K(5,6 TAMRA)-CONH2 as substrate preincubated for 3 hrs followed by substrate addition measured for 120 mins by FRET assay
# [5] = test system: Rattus norvegicus; test: Dose normalized AUC in subcutaneously dosed rat; type: ADME, organism-based; conditions: in vivo, sc
# [6] = target: T3, Tolloid-like protein 2 (Homo sapiens, UniProt Q9Y6L7); test: Binding affinity to TLL2 (unknown origin) using ((5-FAM)-ELIDQYDVQRDDSSDGSLED-K(5,6 TAMRA)-CONH2 as substrate incubated for 3.5 hrs followed by substrate addition by FRET assay
# T3 sequence (Q9Y6L7 whole entry): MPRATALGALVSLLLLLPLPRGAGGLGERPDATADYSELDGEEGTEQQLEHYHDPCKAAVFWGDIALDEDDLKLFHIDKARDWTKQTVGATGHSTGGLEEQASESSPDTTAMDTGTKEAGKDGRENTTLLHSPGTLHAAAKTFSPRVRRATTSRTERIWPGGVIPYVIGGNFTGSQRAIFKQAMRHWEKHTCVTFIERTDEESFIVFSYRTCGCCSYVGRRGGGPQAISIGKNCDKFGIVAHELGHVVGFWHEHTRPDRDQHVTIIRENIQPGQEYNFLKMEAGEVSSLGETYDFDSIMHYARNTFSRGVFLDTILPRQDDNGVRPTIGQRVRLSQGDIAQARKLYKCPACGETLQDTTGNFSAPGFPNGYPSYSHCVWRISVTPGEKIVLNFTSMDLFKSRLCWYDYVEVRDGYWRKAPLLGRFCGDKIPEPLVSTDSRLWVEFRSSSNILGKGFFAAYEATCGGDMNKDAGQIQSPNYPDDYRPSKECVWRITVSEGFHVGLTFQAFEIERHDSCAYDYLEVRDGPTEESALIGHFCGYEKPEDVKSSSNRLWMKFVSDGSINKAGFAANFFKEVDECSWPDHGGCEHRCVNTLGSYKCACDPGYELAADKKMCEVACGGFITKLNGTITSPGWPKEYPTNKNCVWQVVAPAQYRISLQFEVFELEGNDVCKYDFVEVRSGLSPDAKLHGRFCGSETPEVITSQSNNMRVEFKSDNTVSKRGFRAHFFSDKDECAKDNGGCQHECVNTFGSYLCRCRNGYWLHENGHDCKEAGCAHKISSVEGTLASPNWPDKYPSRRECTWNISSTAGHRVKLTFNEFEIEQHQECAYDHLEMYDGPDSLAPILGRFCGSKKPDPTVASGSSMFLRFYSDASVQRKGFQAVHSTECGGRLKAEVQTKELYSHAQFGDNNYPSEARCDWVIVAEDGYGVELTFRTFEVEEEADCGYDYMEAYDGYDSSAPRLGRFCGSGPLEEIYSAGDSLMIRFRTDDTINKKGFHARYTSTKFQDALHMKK
# [7] = Mean residence time in sc dosed dog; type: ADME, organism-based, Canis lupus familiaris; conditions: in vivo
# [8] = target: T2, Bone morphogenetic protein 1 (Homo sapiens); test: Binding affinity to BMP1 (unknown origin) assessed as half life using ((5-FAM)-ELIDQYDVQRDDSSDGSLED-K(5,6 TAMRA)-CONH2 as substrate preincubated for 0.5 hrs followed by substrate addition measured over 4 hrs by rapid jump dilution method
# [9] = Mean residence time in sc dosed rat; type: ADME, organism-based; conditions: in vivo
# [10] = target: T4, Tolloid-like protein 1 (Homo sapiens, UniProt O43897); test: Binding affinity to TLL1 (unknown origin) using ((5-FAM)-ELIDQYDVQRDDSSDGSLED-K(5,6 TAMRA)-CONH2 as substrate incubated for 3.5 hrs followed by substrate addition by FRET assay
# T4 sequence (O43897 whole entry): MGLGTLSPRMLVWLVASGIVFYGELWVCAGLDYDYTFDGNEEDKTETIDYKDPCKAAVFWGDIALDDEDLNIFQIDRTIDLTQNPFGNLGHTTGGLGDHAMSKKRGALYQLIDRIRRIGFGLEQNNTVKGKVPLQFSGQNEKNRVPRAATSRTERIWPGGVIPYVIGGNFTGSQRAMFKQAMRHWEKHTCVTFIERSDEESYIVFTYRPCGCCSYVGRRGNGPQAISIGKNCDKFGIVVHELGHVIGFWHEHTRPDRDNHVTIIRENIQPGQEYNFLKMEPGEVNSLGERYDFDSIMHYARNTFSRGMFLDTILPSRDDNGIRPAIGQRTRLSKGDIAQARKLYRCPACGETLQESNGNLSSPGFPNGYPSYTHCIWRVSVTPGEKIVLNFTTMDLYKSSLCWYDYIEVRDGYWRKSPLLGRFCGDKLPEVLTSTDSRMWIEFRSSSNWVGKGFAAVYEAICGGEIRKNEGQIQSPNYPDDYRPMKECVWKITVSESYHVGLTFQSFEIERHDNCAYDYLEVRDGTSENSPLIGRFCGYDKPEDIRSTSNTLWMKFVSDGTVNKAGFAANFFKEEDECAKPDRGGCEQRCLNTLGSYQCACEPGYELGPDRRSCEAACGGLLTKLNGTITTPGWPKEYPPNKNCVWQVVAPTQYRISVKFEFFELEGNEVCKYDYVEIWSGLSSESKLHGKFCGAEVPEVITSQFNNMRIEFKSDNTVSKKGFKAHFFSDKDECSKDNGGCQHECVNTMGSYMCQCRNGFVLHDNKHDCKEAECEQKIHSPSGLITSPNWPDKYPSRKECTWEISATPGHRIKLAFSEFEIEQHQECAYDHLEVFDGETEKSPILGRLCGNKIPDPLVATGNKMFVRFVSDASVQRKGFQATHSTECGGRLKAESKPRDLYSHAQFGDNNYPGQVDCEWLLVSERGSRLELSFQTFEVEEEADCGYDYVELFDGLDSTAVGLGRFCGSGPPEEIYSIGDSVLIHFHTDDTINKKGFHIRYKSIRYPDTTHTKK
# [11] = test system: Canis familiaris; test: Dose normalized AUC in subcutaneously dosed dog; type: ADME, organism-based, Canis lupus familiaris; conditions: in vivo, sc
# [12] = target: T2, Bone morphogenetic protein 1 (Homo sapiens); test: Binding affinity to BMP1 (unknown origin) assessed as dissociation rate constant using ((5-FAM)-ELIDQYDVQRDDSSDGSLED-K(5,6 TAMRA)-CONH2 as substrate preincubated for 0.5 hrs followed by substrate addition measured over 4 hrs by rapid jump dilution method
# Macrophage metalloelastase, sequence (P39900 whole entry, the tested form may be a part): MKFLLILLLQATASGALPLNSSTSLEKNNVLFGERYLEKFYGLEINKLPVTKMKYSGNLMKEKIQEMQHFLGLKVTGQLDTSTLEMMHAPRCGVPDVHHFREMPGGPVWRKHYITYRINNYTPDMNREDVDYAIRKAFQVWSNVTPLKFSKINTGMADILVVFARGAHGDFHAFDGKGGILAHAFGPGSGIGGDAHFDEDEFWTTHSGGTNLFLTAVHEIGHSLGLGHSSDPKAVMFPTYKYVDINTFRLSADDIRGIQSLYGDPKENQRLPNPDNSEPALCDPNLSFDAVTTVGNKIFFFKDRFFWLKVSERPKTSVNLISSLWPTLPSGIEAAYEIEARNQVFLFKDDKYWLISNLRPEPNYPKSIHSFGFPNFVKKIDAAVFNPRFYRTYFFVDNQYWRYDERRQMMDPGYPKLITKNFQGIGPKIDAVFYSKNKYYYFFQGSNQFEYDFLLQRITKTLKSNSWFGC
Structure (SMILES),IC50 [1] [nM],IC50 [2] [nM],further results
COc1cccc2cc(C(=O)NCNC(=O)CCN(O)C=O)oc12,> 10000,6300,
CCCCC[C@H](CN(O)C=O)C(=O)NCNC(=O)c1ccc(-c2cccc(C(=O)O)c2)o1,,8,
CCCCC[C@@H](C(=O)NCNC(=O)c1ccc(-c2cc(OCC)cc(C(=O)O)c2)o1)[C@@H](CC)N(O)C=O,,< 1,
CCC[C@H](CN(O)C=O)C(=O)NCNC(=O)c1cc2cccc(OC)c2o1,1250,1250,
CCCCC[C@H](CN(O)C=O)C(=O)NCNC(=O)c1ccc(-c2ccc(C(=O)O)cc2)o1,,1,
CCCCC[C@@H](C(=O)NCNC(=O)c1ccc(-c2ccc(C(=O)N[C@@H](CC(=O)O)C(=O)O)c(OCC)c2)o1)[C@@H](CC)N(O)C=O,,< 1,K [3]: 5.5e+07 M⁻¹ s⁻¹; Ki [4]: 0.0068 nM; AUC/dose [5]: 0.27 kg·h/L; Ki [6]: 0.039 nM; MRT [7]: > 2 h; T1/2 [8]: 0.3 h; MRT [9]: > 2 h; Ki [10]: 0.031 nM; AUC/dose [11]: 0.85 kg·h/L; K [12]: 2.3 h⁻¹
CCCCC[C@H](CN(O)C=O)C(=O)NCNC(=O)c1cc2cccc(OC)c2o1,400,160,
CCCCC[C@H](CN(O)C=O)C(=O)NCNC(=O)c1ccc(-c2cccc(OC)c2)o1,,20,
CCCCC[C@H](CN(O)C=O)C(=O)NCNC(=O)c1ccc(-c2cccc(OCC)c2)o1,,1,
CCCCC[C@@H](C(=O)NCNC(=O)c1cc2cccc(OC)c2o1)[C@H](CC)N(O)C=O,200,> 10000,
CCCCC[C@H](CN(O)C=O)C(=O)NCNC(=O)c1ccc(-c2ccccc2)o1,,25,
CCCCC[C@@H](C(=O)NCNC(=O)c1ccc(-c2cc(OCC)cc(P(=O)(O)O)c2)o1)[C@@H](CC)N(O)C=O,,< 1,K [3]: 3.6e+06 M⁻¹ s⁻¹; Ki [4]: 0.04 nM; AUC/dose [5]: 2.3 kg·h/L; Ki [6]: 0.26 nM; MRT [7]: > 2 h; T1/2 [8]: 0.75 h; MRT [9]: > 2 h; Ki [10]: 0.24 nM; AUC/dose [11]: 5 kg·h/L; K [12]: 0.93 h⁻¹
CCCCC[C@@H](C(=O)NCNC(=O)c1ccc(-c2cc(OCC)cc(C(=O)N[C@@H](CC(=O)O)C(=O)O)c2)o1)[C@@H](CC)N(O)C=O,,< 1,
CCCCC[C@@H](C(=O)NCNC(=O)c1ccc(-c2ccc(C(=O)O)c(OCC)c2)o1)[C@@H](CC)N(O)C=O,,< 1,
CCCCC[C@@H](C(=O)NCNC(=O)c1cc2cccc(OC)c2o1)[C@@H](CC)N(O)C=O,> 10000,126,
CCCCC[C@@H](C(=O)NCNC(=O)c1ccc(-c2ccc(P(=O)(O)O)c(OCC)c2)o1)[C@@H](CC)N(O)C=O,,< 1,
COc1cccc2cc(C(=O)NCNC(=O)[C@H](Cc3ccccc3)CN(O)C=O)oc12,4000,160,
CCCCC[C@@H](CN(O)C=O)C(=O)NCNC(=O)c1cc2cccc(OC)c2o1,> 10000,4000,
